How the values were obtained:
[1] = system: mice; conditions: cited from earlier work
[2] = Conversion of Formula (I) compounds to HNK upon administration to a subject; assay type: in vivo; conditions: possible two-step process: hydrolysis under acid conditions, then enzymatic conversion by esterase action
Excerpt: In this prophetic example, exemplary compounds of Formula (I) yield HNK upon administration to a subject, such as a patient in a clinical trial, in one or more steps. For example, in one possible pathway illustrated in the following schematic, exemplary compounds of Formula (I) may yield HNK in a two-step process, consisting of hydrolysis in Step 1 under acid conditions, such as those in the stomach, and subsequent enzymatic conversion by esterase action.

Row | SMILES | antidepressant activity [1] | conversion to HNK upon administration [2]
1 | N[C@@]1(c2ccccc2Cl)CCC[C@@H](O)C1=O [(2R,6R)-hydroxynorketamine] | has antidepressant activity | –
2 | CC(O)C1=N[C@@]2(c3ccccc3Cl)CCC[C@@H](O1)C2=O (stereo partly drawn) [Example 2, (1R,5R)-5-(2-chlorophenyl)-3-(1-hydroxyethyl)-2-oxa-4 azabicyclo[3.3.1]non-3-en-9-one] | – | may give rise to HNK and lactic acid

— patent US10738018B2, “Compounds for therapeutic use” (Dart NeuroScience, LLC, priority 2016, dated 2020)
